Measured values taken from patent publication US7169925B2, “Indole derivatives as interleukin-4 gene expression inhibitors” (Aventis Pharmaceuticals Inc., priority 2002, dated 2007).
Where a name gives a salt, the structure may show the parent alone. Starred links: 1 amine or outer side, 2 acyl side, 3 side chain; linkers in the order of their positions; H or OH if unused. Positions of bridges follow the written chain, without caps; N, C: chain ends. Non-standard residues stand in square brackets, D forms with d. Residues, ends and D or L forms follow the SMILES beside them. Chains are numbered I, II in the order given. Actinocin(9to1) = Cc1c2oc3c(C)ccc(C(=O)[*:1])c3nc-2c(C(=O)[*:2])c(N)c1=O; NMeV = CN[C@H](C(=O)O)C(C)C; Sar = CNCC(=O)O

Tests used:
Swiss 3T3 fibroblasts = test: In vitro cytotoxicity assay on contact inhibited, non-dividing 3T3 fibroblasts (MTS); format: cell-based
Description: Other toxicity assays may be used.
Any compound killing 3T3 fibroblast cells was omitted from further studies.
Contact inhibited Swiss 3T3 fibroblasts are purchased from ATCC.
All compound dilutions are assayed in triplicate. […] Cells are returned to the incubator for 2 days.
Media is added to blank wells for background calculations.
Note that starting concentration of CsA was 1 μM.

[1] = Oral bioavailability (statement); format: in vivo
[2] = Sheep asthma model (Ascaris suum antigen challenge, specific lung resistance, PC400); format: in vivo
Description: Briefly, transpulmonary pressure, pulmonary resistance (RL), specific lung resistance (SRL airway hyper reactivity, airway responsiveness, are determined.
Venous blood samples (˜5 ml) are obtained from a peripheral leg vein or the jugular vein for pharmacokinetic data. Measurement of Airway Mechanics: The unsedated sheep are restrained in a cart in the prone position with their heads immobilized. After topical anesthesia of the nasal passages with 2% lidocaine solution, a balloon catheter is advanced through one nostril into the lower esophagus. The animals are […] with a cuffed endotracheal tube through the other nostril using a flexible fiberoptic bronchoscope as a guide. (The cuff of the endotracheal tube is inflated only for the measurement of airway mechanics and during aerosol challenges to prevent undue discomfort. This procedure has no effect on airway mechanics). Pleural pressure is estimated with the esophageal balloon catheter (filled with one ml of air) which is positioned 5–10 cm from the gastroesophageal junction. In this position the end expiratory pleural pressure ranges between −2 and −5 cm H2O. Once the balloon is placed, it is secured so that it remains in position for the duration of the experiment. Lateral pressure in the trachea is measured with a sidehole catheter (inner dimension, 2.5 mm) advanced through and positioned distal to the tip of the endotracheal tube. Transpulmonary pressure, the difference between tracheal and pleural pressure, is measured with a differential pressure transducer catheter system. […] The signals of flow and transpulmonary pressure is recorded on an oscilloscope recorder which is linked to a computer for on-line calculation of RL from transpulmonary pressure, respiratory volume (obtained by digital integration) and flow. […] Immediately after the measurement of RL, thoracic gas volume (Vtg) is measured in a constant volume body plethysmograph to obtain specific lung resistance (SRL=RL·Vtg) in L×cm H2O/LPS. […]

Solubility (statement) = format: physicochemical
[3] = 3 mg/kg aerosol 30 min before antigen challenge, 2 sheep (FIG. 3A)

| Structure (SMILES) | melting point | further results |
| --- | --- | --- |
| Cn1c(C(=O)O)c(Nc2ccncc2)c2ccccc21.O=C(O)/C=C\C(=O)O | 192 to 194 °C (dec.) | – |
| Cn1c(C(=O)O)c(Nc2ccncc2)c2c(F)cccc21 (as salt: trifluoroacetate) [Example 31, 4-Fluoro-1-Methyl-3-(4-pyridinylamino)-1H-indole-2-carboxylic acid Trifluoroacetate Salt] | 197 to 199 °C | – |
| Cc1c2oc3c(C)ccc(C(=O)N[C@@H]4C(=O)N[C@H](C(C)C)C(=O)N5CCC[C@H]5C(=O)N(C)CC(=O)N(C)[C@@H](C(C)C)C(=O)O[C@@H]4C)c3nc-2c(C(=O)N[C@@H]2C(=O)N[C@H](C(C)C)C(=O)N3CCC[C@H]3C(=O)N(C)CC(=O)N(C)[C@@H](C(C)C)C(=O)O[C@@H]2C)c(N)c1=O [Actinomycin D] (I: T[dV]P[Sar][NMeV] / II: T[dV]P[Sar][NMeV]; ester I:1-I:C, II:1-II:C; linker I:N-II:N via Actinocin(9to1)) | – | viability of quiescent 3T3 cells, % control (Swiss 3T3 fibroblasts; 0.001 μM, 2 day incubation): 79.0 % control; toxic effects on quiescent 3T3 cells (in words) (Swiss 3T3 fibroblasts; non-dividing 3T3 cells): effected the viability |
| C[C@@H]1C[C@H]2[C@@H]3CCC4=CC(=O)C=C[C@]4(C)[C@@]3(F)[C@@H](O)C[C@]2(C)[C@@]1(O)C(=O)CO [Dexamethasone] | – | viability of quiescent 3T3 cells, % control (Swiss 3T3 fibroblasts; mouse, 2 days, 0.001 μM): 100.0 % control |
| O=C(O)c1[nH]c2ccccc2c1Nc1ccncc1 [Example 28, 3-(4-Pyridinylamino)-1H-indole-2-carboxylic acid] | – | oral bioavailability (in words) [1]: low oral bioavailability; antigen-induced early bronchial response: acute increase in specific lung resistance (SRL) [2, 3]: did not affect; antigen-induced late bronchial response (SRL) [2, 3]: blocked the late response; post challenge airway responsiveness (decrease of PC400 after antigen challenge) ([2]; 3 mg/kg, 2 sheep (FIG. 3B)): prevented this effect; solubility (in words) (Solubility (statement)): relatively low solubility |
| CN(C(=O)c1ccc(Cl)cc1)c1c(C(=O)O)[nH]c2cc(Cl)cc(Cl)c12 [Example 80, 3-((4-chlorobenzoyl)methylamino)-4,6-dichloro-1H-indole-2-carboxylic acid] | 279 to 283 °C | – |
| O=C(Nc1c(C(=O)O)[nH]c2cc(Cl)cc(Cl)c12)c1ccccc1Cc1ccccc1 [Example 87, 3-((2-Benzylbenzoyl)amino)-4,6-dichloro-1H-indole-2-carboxylic acid] | 234 to 235 °C | – |
| CN(C(=O)c1cccc(F)c1)c1c(C(=O)O)[nH]c2cc(Cl)cc(Cl)c12 [Example 88, 3-((3-Fluorobenzoyl)methylamino)-4,6-dichloro-1H-indole-2-carboxylic acid] | 270 to 280 °C | – |
| CN(Cc1cnc2nc(N)nc(N)c2n1)c1ccc(C(=O)N[C@@H](CCC(=O)O)C(=O)O)cc1 [Methotrexate] | – | viability of quiescent 3T3 cells, % control (Swiss 3T3 fibroblasts; mouse, 2 days, 0.03 μM): 100.0 % control |

Continued, in another order:

| melting point | Structure (SMILES) | further results |
| --- | --- | --- |
| 231 to 234 °C (dec.) | O=C(O)c1[nH]c2cccc(F)c2c1Nc1ccncc1 (as salt: trifluoroacetate) | – |
| 211 to 213 °C | COc1ccc2[nH]c(C(=O)O)c(Nc3ccncc3)c2c1 (as salt: trifluoroacetate) | – |
| 210 to 212 °C | CC(C)(C)OC(=O)c1[nH]c2cccc(F)c2c1Nc1ccncc1 [Example 17, 4-fluoro-3-(4-pyridinylamino)-1H-indole-2-carboxylic tert-butyl ester] | – |
| 217 to 219 °C | COc1ccc2[nH]c(C(=O)OC(C)(C)C)c(Nc3ccncc3)c2c1 [Example 21, 5-methoxy-3-(4-pyridinylamino)-1H-indole-2-carboxylic tert-butyl ester] | – |
| 154 to 155 °C | CCOC(=O)c1c(Nc2ccncc2)c2ccc(Cl)cc2n1C [Example 27, 6-Chloro-1-methyl-3-(4-pyridinylamino)-1H-indole-2-carboxylic ethyl ester] | – |
| 212 to 214 °C | CCOC(=O)c1c(Nc2ccncc2)c2ccc(Cl)cc2n1CC(=O)N(CC)CC [Example 34, 6-Chloro-1-diethylcarbamoylmethyl-3-(pyridin-4-ylamino)-1H-indole-2-carboxylic acid ethyl ester] | – |
| 230 °C (dec.) | NC(=O)c1[nH]c2ccccc2c1Nc1ccncc1 [Example 128, 3-(Pyridin-4-ylamino)-1H-indole-2-carboxamide] | – |
